Reference: article PMC10327353 (Breast Cancer Research : BCR, 2023)

Assay: Phase 1 study: safety and tolerability
Format: in vivo
Procedure: The maximum tolerated dose (MTD) of DZD1516 was defined based on safety data and the Bayesian optimal interval (BOIN) design (Additional file 1). The definition of DLT is provided in Additional file 1.
The AE grading was assessed according to the NCI-Common Terminology Criteria for Adverse Events (CTCAE) (version 5.0) and was monitored until 28 days after the last dose.
Eligible patients received single oral dosing of DZD1516 on Cycle 0 Day 1 (C0D1), followed by a 7-day washout. Twice daily oral dosing (bid) of DZD1516 was commenced from C1D1 in a continuous 21-day cycle until disease progression, unacceptable toxicity, or withdrawal of consent. All doses were taken under fed conditions (within 30 minutes after a meal).
Planned dosing consisted of 25, 50, 100, 200, 300, and 400 mg. Each dose escalation cohort will comprise a minimum of three and a maximum of six evaluable patients (except only one patient in the starting dose cohort). The maximum tolerated dose of DZD1516 was defined according to safety data and the Bayesian optimal interval (BOIN) design. Dose escalation/de-escalation rule with target toxicity rate for the MTD is 0.30 with interval of (0.20, 0.33).
DLTs were any adverse event (AE) not clearly attributable to the patient’s disease, including ≥ grade 4 hematological toxicities present for ≥ 4 days, grade 3 thrombocytopenia with bleeding, or grade 4 thrombocytopenia lasting for > 5 days, ≥ grade 3 non-hematological toxicities that is dose-limiting in the judgment of the investigators. Any other toxicity that is greater than that at baseline, is clinically significant or unacceptable, and is judged to be a DLT by the SRC. Exceptions included alopecia of any grade and isolated grade 3 laboratory change without clinical sequelae or clinical significance.
Safety evaluations were conducted at screening, on Day 1, 8, and 15 of Cycle 1, on Day 1 of each subsequent treatment cycle, at the end-of-treatment visit, and clinically indicated. Safety assessments included clinical laboratory measurements (hematology, chemistry, coagulation, and urinalysis), electrocardiogram (ECG), Echocardiogram/MUGA scan, ECOG performance status, vital signs, and physical examinations.

COc1cc(O[C@H]2CCN(C)CC2(F)F)c2c(Nc3ccc(Oc4ccn5ncnc5c4)c(C)c3)ncnc2c1 [DZD1516]
Headache, ≥ Grade 3 (200 mg (N = 5)): 0 (0.0) n (%)
Hemoglobin decreased, Any Grade (200 mg (N = 5)): 3 (60.0) n (%)
Hemoglobin decreased, ≥ Grade 3 (200 mg (N = 5)): 0 (0.0) n (%)
Investigations, Any Grade (200 mg (N = 5)): 4 (80.0) n (%)
Investigations, ≥ Grade 3 (200 mg (N = 5)): 1 (20.0) n (%)
Lipase increased, Any Grade (200 mg (N = 5)): 1 (20.0) n (%)
Lipase increased, ≥ Grade 3 (200 mg (N = 5)): 0 (0.0) n (%)
Malaise, Any Grade (200 mg (N = 5)): 1 (20.0) n (%)
Malaise, ≥ Grade 3 (200 mg (N = 5)): 0 (0.0) n (%)
Metabolism and nutrition disorders, Any Grade (200 mg (N = 5)): 3 (60.0) n (%)
Metabolism and nutrition disorders, ≥ Grade 3 (200 mg (N = 5)): 0 (0.0) n (%)
Musculoskeletal and connective tissue disorders, Any Grade (200 mg (N = 5)): 0 (0.0) n (%)
Musculoskeletal and connective tissue disorders, ≥ Grade 3 (200 mg (N = 5)): 0 (0.0) n (%)
Nausea, Any Grade (200 mg (N = 5)): 1 (20.0) n (%)
Nausea, ≥ Grade 3 (200 mg (N = 5)): 0 (0.0) n (%)
Nervous system disorders, Any Grade (200 mg (N = 5)): 2 (40.0) n (%)
Nervous system disorders, ≥ Grade 3 (200 mg (N = 5)): 0 (0.0) n (%)
Participants with any TEAE, Any Grade (200 mg (N = 5)): 5 (100.0) n (%)
Participants with any TEAE, ≥ Grade 3 (200 mg (N = 5)): 1 (20.0) n (%)
Platelet count decreased, Any Grade (200 mg (N = 5)): 1 (20.0) n (%)
Platelet count decreased, ≥ Grade 3 (200 mg (N = 5)): 0 (0.0) n (%)
Proteinuria, Any Grade (200 mg (N = 5)): 2 (40.0) n (%)
Proteinuria, ≥ Grade 3 (200 mg (N = 5)): 0 (0.0) n (%)
Renal and urinary disorders, Any Grade (200 mg (N = 5)): 2 (40.0) n (%)
Renal and urinary disorders, ≥ Grade 3 (200 mg (N = 5)): 0 (0.0) n (%)
Subjects with any TEAE (200 mg (N = 5)): 5 (100.0) n (%)
Subjects with any drug-related TEAE (200 mg (N = 5)): 5 (100.0) n (%)
Vomiting, Any Grade (200 mg (N = 5)): 3 (60.0) n (%)
Vomiting, ≥ Grade 3 (200 mg (N = 5)): 0 (0.0) n (%)
White blood cell count decreased, Any Grade (200 mg (N = 5)): 0 (0.0) n (%)
White blood cell count decreased, ≥ Grade 3 (200 mg (N = 5)): 0 (0.0) n (%)
Alanine aminotransferase increased, Any Grade (250 mg (N = 5)): 1 (20.0) n (%)
Alanine aminotransferase increased, ≥ Grade 3 (250 mg (N = 5)): 0 (0.0) n (%)
Anemia, Any Grade (250 mg (N = 5)): 1 (20.0) n (%)
Anemia, ≥ Grade 3 (250 mg (N = 5)): 0 (0.0) n (%)
Any TEAE: Grade 3 (250 mg (N = 5)): 1 (20.0) n (%)
Any TEAE: Leading to death (250 mg (N = 5)): 0 (0.0) n (%)
Any TEAE: Leading to dose reduction (250 mg (N = 5)): 0 (0.0) n (%)
Any TEAE: Leading to treatment discontinuation (250 mg (N = 5)): 0 (0.0) n (%)
Any TEAE: Leading to treatment interruption (250 mg (N = 5)): 1 (20.0) n (%)
Any TEAE: SAE (250 mg (N = 5)): 1 (20.0) n (%)
Aspartate aminotransferase increased, Any Grade (250 mg (N = 5)): 2 (40.0) n (%)
Aspartate aminotransferase increased, ≥ Grade 3 (250 mg (N = 5)): 0 (0.0) n (%)
Blood and lymphatic system disorders, Any Grade (250 mg (N = 5)): 1 (20.0) n (%)
Blood and lymphatic system disorders, ≥ Grade 3 (250 mg (N = 5)): 0 (0.0) n (%)
Blood bilirubin increased, Any Grade (250 mg (N = 5)): 1 (20.0) n (%)
Blood bilirubin increased, ≥ Grade 3 (250 mg (N = 5)): 0 (0.0) n (%)
Cardiac disorders, Any Grade (250 mg (N = 5)): 2 (40.0) n (%)
Cardiac disorders, ≥ Grade 3 (250 mg (N = 5)): 0 (0.0) n (%)
Constipation, Any Grade (250 mg (N = 5)): 0 (0.0) n (%)
Constipation, ≥ Grade 3 (250 mg (N = 5)): 0 (0.0) n (%)
Decreased appetite, Any Grade (250 mg (N = 5)): 0 (0.0) n (%)
Decreased appetite, ≥ Grade 3 (250 mg (N = 5)): 0 (0.0) n (%)
Dizziness, Any Grade (250 mg (N = 5)): 1 (20.0) n (%)
Dizziness, ≥ Grade 3 (250 mg (N = 5)): 0 (0.0) n (%)
Drug-related TEAE: Grade 3 (250 mg (N = 5)): 0 (0.0) n (%)
Drug-related TEAE: Leading to death (250 mg (N = 5)): 0 (0.0) n (%)
Drug-related TEAE: Leading to dose reduction (250 mg (N = 5)): 0 (0.0) n (%)
Drug-related TEAE: Leading to treatment discontinuation (250 mg (N = 5)): 0 (0.0) n (%)
Drug-related TEAE: Leading to treatment interruption (250 mg (N = 5)): 0 (0.0) n (%)
Drug-related TEAE: SAE (250 mg (N = 5)): 0 (0.0) n (%)
Fatigue, Any Grade (250 mg (N = 5)): 1 (20.0) n (%)
Fatigue, ≥ Grade 3 (250 mg (N = 5)): 0 (0.0) n (%)
Gastrointestinal disorders, Any Grade (250 mg (N = 5)): 1 (20.0) n (%)
Gastrointestinal disorders, ≥ Grade 3 (250 mg (N = 5)): 1 (20.0) n (%)
General disorders and administration site conditions, Any Grade (250 mg (N = 5)): 2 (40.0) n (%)
General disorders and administration site conditions, ≥ Grade 3 (250 mg (N = 5)): 0 (0.0) n (%)
Headache, Any Grade (250 mg (N = 5)): 2 (40.0) n (%)
Headache, ≥ Grade 3 (250 mg (N = 5)): 0 (0.0) n (%)
Hemoglobin decreased, Any Grade (250 mg (N = 5)): 2 (40.0) n (%)
Hemoglobin decreased, ≥ Grade 3 (250 mg (N = 5)): 0 (0.0) n (%)
Investigations, Any Grade (250 mg (N = 5)): 2 (40.0) n (%)
Investigations, ≥ Grade 3 (250 mg (N = 5)): 0 (0.0) n (%)
Lipase increased, Any Grade (250 mg (N = 5)): 0 (0.0) n (%)
Lipase increased, ≥ Grade 3 (250 mg (N = 5)): 0 (0.0) n (%)
Malaise, Any Grade (250 mg (N = 5)): 1 (20.0) n (%)
Malaise, ≥ Grade 3 (250 mg (N = 5)): 0 (0.0) n (%)
Metabolism and nutrition disorders, Any Grade (250 mg (N = 5)): 1 (20.0) n (%)
Metabolism and nutrition disorders, ≥ Grade 3 (250 mg (N = 5)): 0 (0.0) n (%)
Musculoskeletal and connective tissue disorders, Any Grade (250 mg (N = 5)): 3 (60.0) n (%)
Musculoskeletal and connective tissue disorders, ≥ Grade 3 (250 mg (N = 5)): 1 (20.0) n (%)
Nausea, Any Grade (250 mg (N = 5)): 1 (20.0) n (%)
Nausea, ≥ Grade 3 (250 mg (N = 5)): 0 (0.0) n (%)
Nervous system disorders, Any Grade (250 mg (N = 5)): 4 (80.0) n (%)
Nervous system disorders, ≥ Grade 3 (250 mg (N = 5)): 0 (0.0) n (%)
Participants with any TEAE, Any Grade (250 mg (N = 5)): 5 (100.0) n (%)
Participants with any TEAE, ≥ Grade 3 (250 mg (N = 5)): 1 (20.0) n (%)
Platelet count decreased, Any Grade (250 mg (N = 5)): 0 (0.0) n (%)
Platelet count decreased, ≥ Grade 3 (250 mg (N = 5)): 0 (0.0) n (%)
Proteinuria, Any Grade (250 mg (N = 5)): 0 (0.0) n (%)
Proteinuria, ≥ Grade 3 (250 mg (N = 5)): 0 (0.0) n (%)
Renal and urinary disorders, Any Grade (250 mg (N = 5)): 0 (0.0) n (%)
Renal and urinary disorders, ≥ Grade 3 (250 mg (N = 5)): 0 (0.0) n (%)
Subjects with any TEAE (250 mg (N = 5)): 5 (100.0) n (%)
Subjects with any drug-related TEAE (250 mg (N = 5)): 4 (80.0) n (%)
Vomiting, Any Grade (250 mg (N = 5)): 0 (0.0) n (%)
Vomiting, ≥ Grade 3 (250 mg (N = 5)): 0 (0.0) n (%)
White blood cell count decreased, Any Grade (250 mg (N = 5)): 2 (40.0) n (%)
White blood cell count decreased, ≥ Grade 3 (250 mg (N = 5)): 0 (0.0) n (%)
dose-limiting toxicities (DLTs) (250 mg cohort): none of the patients in the 250 mg cohort experiencing DLTs
Alanine aminotransferase increased, Any Grade (300 mg (N = 4)): 1 (25.0) n (%)
Alanine aminotransferase increased, ≥ Grade 3 (300 mg (N = 4)): 0 (0.0) n (%)
Anemia, Any Grade (300 mg (N = 4)): 0 (0.0) n (%)
Anemia, ≥ Grade 3 (300 mg (N = 4)): 0 (0.0) n (%)
Any TEAE: Grade 3 (300 mg (N = 4)): 3 (75.0) n (%)
Any TEAE: Leading to death (300 mg (N = 4)): 0 (0.0) n (%)
Any TEAE: Leading to dose reduction (300 mg (N = 4)): 3 (75.0) n (%)
Any TEAE: Leading to treatment discontinuation (300 mg (N = 4)): 1 (25.0) n (%)
Any TEAE: Leading to treatment interruption (300 mg (N = 4)): 3 (75.0) n (%)
Any TEAE: SAE (300 mg (N = 4)): 0 (0.0) n (%)
Aspartate aminotransferase increased, Any Grade (300 mg (N = 4)): 1 (25.0) n (%)
Aspartate aminotransferase increased, ≥ Grade 3 (300 mg (N = 4)): 0 (0.0) n (%)
Blood and lymphatic system disorders, Any Grade (300 mg (N = 4)): 0 (0.0) n (%)
Blood and lymphatic system disorders, ≥ Grade 3 (300 mg (N = 4)): 0 (0.0) n (%)
Blood bilirubin increased, Any Grade (300 mg (N = 4)): 0 (0.0) n (%)
Blood bilirubin increased, ≥ Grade 3 (300 mg (N = 4)): 0 (0.0) n (%)
Cardiac disorders, Any Grade (300 mg (N = 4)): 0 (0.0) n (%)
Cardiac disorders, ≥ Grade 3 (300 mg (N = 4)): 0 (0.0) n (%)
Constipation, Any Grade (300 mg (N = 4)): 1 (25.0) n (%)
Constipation, ≥ Grade 3 (300 mg (N = 4)): 0 (0.0) n (%)
Decreased appetite, Any Grade (300 mg (N = 4)): 3 (75.0) n (%)
